In publication PMC10705561 (bioRxiv, 2023):

What was measured:
[1] = system: rNsp5-S144M recombinant SARS-CoV-2; type: cell-based
[2] = system: rNsp5-L50F/E166V recombinant SARS-CoV-2; type: cell-based

In the case of CC(C)(C)[C@H](NC(=O)C(F)(F)F)C(=O)N1C[C@H]2[C@@H]([C@H]1C(=O)N[C@H](C#N)C[C@@H]1CCNC1=O)C2(C)C [nirmatrelvir], the “EC50 fold-increase compared to WT” value [1] is reported as 12.5 and the “EC50 fold-increase compared to WT” value [2] is reported as 24.2.
